Experimental data from paper PMC4979471 (Cell Death Discovery, 2015).
Where two headings read alike, the source gives them in different places.

Legend:
Experiment in all cases: Kinase selectivity, P33-radiolabeled assay
Format in all cases: biochemical
Settings in all cases: 10 μM ATP
ASK1/MAP3K5 = target: T1, ASK1/MAP3K5 (Homo sapiens, UniProt Q99683)
T1 construct: purchased Reaction Biology Corp
T1 sequence (Q99683 1-1374): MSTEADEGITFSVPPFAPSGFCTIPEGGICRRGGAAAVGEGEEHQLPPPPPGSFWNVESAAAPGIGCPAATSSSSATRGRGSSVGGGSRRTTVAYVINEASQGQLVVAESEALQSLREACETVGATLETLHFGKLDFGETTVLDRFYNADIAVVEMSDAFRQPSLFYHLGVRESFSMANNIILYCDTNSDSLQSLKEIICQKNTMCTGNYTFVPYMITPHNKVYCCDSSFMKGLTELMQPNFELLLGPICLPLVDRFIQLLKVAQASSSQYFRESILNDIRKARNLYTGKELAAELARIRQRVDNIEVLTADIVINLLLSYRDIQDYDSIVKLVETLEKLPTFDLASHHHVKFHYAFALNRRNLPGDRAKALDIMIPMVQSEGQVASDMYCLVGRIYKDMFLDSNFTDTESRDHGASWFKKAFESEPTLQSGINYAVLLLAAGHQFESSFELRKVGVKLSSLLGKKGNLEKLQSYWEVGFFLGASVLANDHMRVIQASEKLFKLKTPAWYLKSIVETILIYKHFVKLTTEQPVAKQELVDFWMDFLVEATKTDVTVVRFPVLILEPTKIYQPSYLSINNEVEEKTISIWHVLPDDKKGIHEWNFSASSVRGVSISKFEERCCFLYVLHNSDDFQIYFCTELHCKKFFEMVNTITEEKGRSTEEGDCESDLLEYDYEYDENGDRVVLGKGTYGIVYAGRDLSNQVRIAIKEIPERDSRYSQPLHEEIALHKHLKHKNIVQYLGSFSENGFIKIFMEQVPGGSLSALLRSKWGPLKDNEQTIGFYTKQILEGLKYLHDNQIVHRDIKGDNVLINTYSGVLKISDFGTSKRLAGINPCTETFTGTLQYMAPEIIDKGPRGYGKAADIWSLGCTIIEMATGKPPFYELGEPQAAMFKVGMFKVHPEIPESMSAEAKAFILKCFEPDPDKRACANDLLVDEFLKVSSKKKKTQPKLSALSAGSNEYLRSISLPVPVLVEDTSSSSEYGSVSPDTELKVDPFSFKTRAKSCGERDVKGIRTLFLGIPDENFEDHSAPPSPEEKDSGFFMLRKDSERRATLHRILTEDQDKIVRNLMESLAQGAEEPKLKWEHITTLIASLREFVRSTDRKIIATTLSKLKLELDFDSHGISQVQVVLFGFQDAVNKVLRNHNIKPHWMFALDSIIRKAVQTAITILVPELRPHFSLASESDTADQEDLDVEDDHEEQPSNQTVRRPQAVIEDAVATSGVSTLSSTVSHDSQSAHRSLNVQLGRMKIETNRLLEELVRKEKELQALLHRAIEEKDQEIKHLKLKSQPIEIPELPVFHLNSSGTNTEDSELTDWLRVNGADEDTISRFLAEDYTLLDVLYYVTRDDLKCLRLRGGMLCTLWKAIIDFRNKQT
Outline: (§1)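 Values show % enzyme activity normalised to DMSO vehicle. They come from one 10 μM compound concentration run twice, at an ATP level of 10 μM.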

EPHB2 = target: T2, EPHB2 (Homo sapiens, UniProt P29323)
T2 construct: purchased Reaction Biology Corp
T2 sequence (P29323 19-1055): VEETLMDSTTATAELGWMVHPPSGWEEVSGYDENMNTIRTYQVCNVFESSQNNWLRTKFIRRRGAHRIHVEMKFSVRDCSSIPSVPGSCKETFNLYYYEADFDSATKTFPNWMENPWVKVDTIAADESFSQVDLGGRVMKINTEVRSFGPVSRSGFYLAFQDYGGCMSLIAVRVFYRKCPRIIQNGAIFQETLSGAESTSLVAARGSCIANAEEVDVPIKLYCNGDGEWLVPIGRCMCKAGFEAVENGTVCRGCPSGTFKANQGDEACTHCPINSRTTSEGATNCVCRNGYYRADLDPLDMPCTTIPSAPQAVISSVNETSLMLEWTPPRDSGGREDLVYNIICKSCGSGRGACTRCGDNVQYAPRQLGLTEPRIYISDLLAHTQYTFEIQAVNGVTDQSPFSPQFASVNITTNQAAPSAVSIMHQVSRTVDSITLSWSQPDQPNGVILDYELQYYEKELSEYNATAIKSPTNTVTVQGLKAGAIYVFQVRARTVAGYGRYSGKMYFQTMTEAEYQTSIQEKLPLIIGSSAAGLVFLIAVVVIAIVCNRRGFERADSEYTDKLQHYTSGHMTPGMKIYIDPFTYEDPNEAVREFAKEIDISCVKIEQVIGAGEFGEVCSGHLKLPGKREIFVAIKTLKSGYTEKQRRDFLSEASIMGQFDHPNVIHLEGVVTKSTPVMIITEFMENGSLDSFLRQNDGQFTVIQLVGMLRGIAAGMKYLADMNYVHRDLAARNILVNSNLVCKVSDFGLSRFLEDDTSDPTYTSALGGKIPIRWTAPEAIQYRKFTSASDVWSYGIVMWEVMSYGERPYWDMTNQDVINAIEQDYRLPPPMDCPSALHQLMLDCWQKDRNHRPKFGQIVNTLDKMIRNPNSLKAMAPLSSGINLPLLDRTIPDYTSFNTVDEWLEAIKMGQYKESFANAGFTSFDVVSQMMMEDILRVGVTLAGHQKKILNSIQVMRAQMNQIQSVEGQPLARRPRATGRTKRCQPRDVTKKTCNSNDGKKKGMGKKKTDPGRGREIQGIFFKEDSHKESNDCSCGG
Outline: as §1

PKCeta = target: T3, PKCeta (Homo sapiens, UniProt P24723)
T3 construct: purchased Reaction Biology Corp
Outline: as §1

[1] = read-out: % Enzyme Activity (relative to DMSO controls) AVG
[2] = read-out: % Enzyme Activity (relative to DMSO controls) Data 1
[3] = read-out: % Enzyme Activity (relative to DMSO controls) Data 2

T3 sequence (P24723 whole entry): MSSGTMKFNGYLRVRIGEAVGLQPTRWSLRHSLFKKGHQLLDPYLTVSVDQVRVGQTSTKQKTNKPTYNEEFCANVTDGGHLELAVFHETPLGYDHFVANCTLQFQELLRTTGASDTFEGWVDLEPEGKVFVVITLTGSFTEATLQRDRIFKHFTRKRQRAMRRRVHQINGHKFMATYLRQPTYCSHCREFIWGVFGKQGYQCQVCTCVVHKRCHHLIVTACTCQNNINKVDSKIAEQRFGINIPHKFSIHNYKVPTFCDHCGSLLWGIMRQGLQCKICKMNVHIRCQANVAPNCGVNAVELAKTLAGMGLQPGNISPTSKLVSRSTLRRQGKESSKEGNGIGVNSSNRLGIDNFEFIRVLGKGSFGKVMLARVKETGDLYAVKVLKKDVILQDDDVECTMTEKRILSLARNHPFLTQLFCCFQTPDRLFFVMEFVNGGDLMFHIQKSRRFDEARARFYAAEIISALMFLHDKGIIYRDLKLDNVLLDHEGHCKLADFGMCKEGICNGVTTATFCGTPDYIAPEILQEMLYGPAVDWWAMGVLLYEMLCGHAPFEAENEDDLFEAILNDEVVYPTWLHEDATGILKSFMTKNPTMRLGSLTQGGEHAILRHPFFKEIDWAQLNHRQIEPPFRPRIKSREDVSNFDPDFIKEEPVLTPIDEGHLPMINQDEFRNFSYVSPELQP

CC(C)(C)C(=O)N1N=CC[C@H]1c1ccccc1 [GSK′963]
remaining activity at 10 µM (ASK1/MAP3K5; [1]): 98.8%
remaining activity at 10 µM (ASK1/MAP3K5; [2]): 99.4%
remaining activity at 10 µM (ASK1/MAP3K5; [3]): 98.1%
remaining activity at 10 µM (EPHB2; [1]): 105%
remaining activity at 10 µM (EPHB2; [2]): 108%
remaining activity at 10 µM (EPHB2; [3]): 102%
remaining activity at 10 µM (PKCeta; [1]): 113%
remaining activity at 10 µM (PKCeta; [2]): 112%
remaining activity at 10 µM (PKCeta; [3]): 114%
